Measured values published in patent US6667053B1, “D and L etherlipid stereoisomers and liposomes” (Elan Pharmaceuticals, Inc., priority 1996, dated 2003).
Read-outs that look alike come from different tables or passages of the source.

Assays:
Type in all cases: cell-based
[1] = system: platelets in dog whole blood; test: Platelet aggregation response in whole blood (impedance aggregometer), dog blood
Protocol: (§1) The platelet aggregation effect of the liposomes in the whole blood of various mammals was evaluated using a CHRONO-LOG Dual Chamber Whole Blood Aggregometer Model 560, according to the following protocol:
(§2) Venous blood was collected using 3.8% sodium citrate in a Vacutainer. Dilution ratio is 1 to 9 (citrate solution: blood). The effect of D and L etherlipid and liiposmes containing them on aggregation of platelets from rats, dogs, monkeys and humans was tested.
(§3) Immediately following collection the blood was mix by gentle inversion (maintain at room temperature). Prewarm 500 ul saline in disposable plastic cuvettes. Add 500 ul whole blood or PRP. Add disposable siliconized mini stir bar. Warm diluted blood 5 min at 37° C. prior to testing. Add test samples to aggregation chambers and insert impedance probes.
(§4) Platelet aggregation response was determined by increased resistance using an impedance electrode in a platelet suspension. Resistance measurements were taken 6-8 minutes after addition of the test article to 1 ml whole blood or platelet rich plasma (PRP).

[2] = system: platelets in rat whole blood; test: Platelet aggregation response in whole blood (impedance aggregometer), rat blood
Protocol: as §1, §2, §3, §4

[3] = system: platelets in human whole blood; test: Platelet aggregation response in whole blood (impedance aggregometer), human blood
Protocol: as §1, §2, §3, §4

[4] = system: PAF binding sites on dog blood platelets; test: Platelet aggregation response in dog whole blood with and without CV-6209; conditions: PAF alone, concentration 0.05 μM
Protocol: as §1, §3, §4
To further investigate the platelet aggregation response triggered by the L-ether lipid in dog whole blood, the effect of a compound (CV-6209) that binds PAF binding sites on dog blood platelets was studied.

[5] = system: A549, a human non-small cell lung carcinoma cell line; test: In vitro growth inhibition, Sulforhodamine B (SRB) assay, A549; conditions: read-out: In vitro growth inhibition GI50 (± sd), A549
Protocol: (§5) The anti-tumor activities of the D and L etherlipid were evaluated against A549, a human non-small cell lung carcinoma cell line; MCF 7, a human breast carcinoma line and MCF 7/adr, multi-drug resistant human breast carcinoma; were obtained from the DCT Tumor Repository (NCI-Frederick Cancer Research Facility, Frederick, Md.). U-937, a human histiocytic lymphoma cell line, was obtained from the American Type Culture Collection. Stock cultures of these human cell lines were maintained in RPMI 1640 tissue culture media (Life Technologies, Gaithersburg, Md.) supplemented with 10% heat inactivated fetal bovine serum (Life Technologies) and 10 mM HEPES (Life Technologies). Cultures were maintained in exponential growth in a humidified incubator with 5% CO2 and were passaged twice weekly. L1210 and L1210/vmdr, murine lymphocytic leukemias, (Yale University School of Medicine). L1210/vmdr, a selected line of L1210, was transfected with a plasmid (pHaMDR1/A) containing the mdr 1 gene.
(§6) The detailed methodology of the SRB assay is described elsewhere (2,3). […] The bound stain was solubilized with 100 ul of 10 mM Tris buffer (Sigma) and the optical density was read spectrophotometrically at 490 nm (Microplate Reader Model 3550-UV, Biorad, Hercules, Calif.). […] Percent growth was calculated as follows: (T−T0)/(C−T0)×100 where (T)=mean optical density of treated wells at a given drug concentration, (T0)=mean optical density of time zero wells, and (C)=mean optical density of control wells, or if T<T0 where cell killing has occurred, then percent cell death can be calculated as follows: (T−T0)/(T0)×100. By varying drug concentration, dose response curves were generated and the GI50 values were calculated. The GI50 values for each experiment were calculated using data obtained from three duplicate wells on two separate plates. The mean GI50 values and standard deviations were then calculated from the GI50's from each independent experiment.

Lewis Lung = test: In vitro growth inhibition, SRB assay, Lewis Lung; conditions: 72 hrs treatment, read-out: In vitro growth inhibition GI50 (± sd), Lewis Lung
Protocol: (§7) The detailed methodology of the SRB assay is described elsewhere (2,3). Briefly, 96-well microtiter plates were inoculated with 100 ul of the above cell lines at optimal cell densities, 3500-15,000 cells/well, in medium (RPMI 1640 with L-glutamine (Mediatech, Herndon, Va.)) supplemented with 10% fetal bovine serum (Life Technologies) for all cell lines. The plates were then incubated for 24 hours at 37° C., 100% humidity, and 5% CO2. After the 24 hour incubation, 100 μl of medium was added to the designated time zero plates, then the plates containing adherent cell lines were acid fixed with 50 ul of 50% trichloroacetic acid (wt/vol) (Sigma, St. Louis, Mo.) and refrigerated at 4° C. for 1 hour (the suspension cell lines were acid fixed with 80% trichloroacetic acid). The supernatant was discarded and the plates were rinsed 6 times with water and air dried. Then the test compound was added (100 ul aliquots) to the remaining (non-fixed) plates at 2 times the predetermined highest concentration and serially diluted across the plates. Growth control wells received an additional 100 ul of medium. […] The bound stain was solubilized with 100 ul of 10 mM Tris buffer (Sigma) and the optical density was read spectrophotometrically at 490 nm (Microplate Reader Model 3550-UV, Biorad, Hercules, Calif.). […] Percent growth was calculated as follows: (T−T0)/(C−T0)×100 where (T)=mean optical density of treated wells at a given drug concentration, (T0)=mean optical density of time zero wells, and (C)=mean optical density of control wells, or if T<T0 where cell killing has occurred, then percent cell death can be calculated as follows: (T−T0)/(T0)×100. By varying drug concentration, dose response curves were generated and the GI50 values were calculated. The GI50 values for each experiment were calculated using data obtained from three duplicate wells on two separate plates. The mean GI50 values and standard deviations were then calculated from the GI50's from each independent experiment.

[6] = system: MCF 7, a human breast carcinoma line; test: In vitro growth inhibition, SRB assay, MCF7; conditions: 72 hrs treatment, read-out: In vitro growth inhibition GI50 (± sd), MCF7
Protocol: as §5, §6

[7] = system: MCF 7/adr, multi-drug resistant human breast carcinoma; test: In vitro growth inhibition, SRB assay, MCF7/adr; conditions: 72 hrs treatment, read-out: In vitro growth inhibition GI50 (± sd), MCF7/adr
Protocol: as §5, §6

[8] = system: L1210 murine lymphocytic leukemia; test: In vitro growth inhibition, SRB assay, L1210; conditions: read-out: In vitro growth inhibition GI50 (± sd), L1210
Protocol: as §5, §6

[9] = system: L1210/vmdr murine lymphocytic leukemia (mdr 1 transfected); test: In vitro growth inhibition, SRB assay, L1210/vmdr; conditions: for GI50: 72 hrs treatment, read-out: In vitro growth inhibition GI50 (± sd), L1210/vmdr
Protocol: as §5
as §7, with “dried.” for “dried. Then the test compound was added (100 ul aliquots) to the remaining (non-fixed) plates at 2 times the predetermined highest concentration and serially diluted across the plates. Growth control wells received an additional 100 ul of medium.”

[10] = system: U-937, a human histiocytic lymphoma cell line; test: In vitro growth inhibition, SRB assay, U937; conditions: read-out: In vitro growth inhibition GI50 (± sd), U937
Protocol: as §5, §6

[11] = Homo sapiens, A549, 72 hrs treatment
[12] = Mus musculus, L1210, 72 hrs treatment
[13] = Homo sapiens, U-937, 72 hrs treatment

1-O-2-acetyl-sn-glycero-3-phosphocholine [PAF]
Dog Blood Response ([1]; concentration 0.05 μM): 14.8 Ω
Rat Blood Response ([2]; concentration 0.05 μM): 0 Ω
Human Blood Response ([3]; concentration 0.05 μM): 6.0 Ω
Dog Blood Response [4]: 23.5 Ω

CCCCCCCCCCCCCCCCCCOCC(COP(=O)([O-])OCC[N+](C)(C)C)OC (racemic) [rac-EL]
GI50 ([5]; 72 hrs treatment): 8.36 ± 0.67 µM
GI50 (Lewis Lung): 27.1 ± 1.98 µM
GI50 [6]: 15.9 ± 6.41 µM
GI50 [7]: 27.8 ± 0.3 µM
GI50 ([8]; 72 hrs treatment): 4.18 ± 1.38 µM
GI50 [9]: 6.09 ± 2.15 µM
GI50 ([10]; 72 hrs treatment): 1.5 ± 0.22 µM

Nc1ncnc2c1ncn2[C@@H]1O[C@H](COP(=O)(O)OP(=O)(O)O)[C@@H](O)[C@H]1O [ADP]
Dog Blood Response ([1]; concentration 20 μM): 4.0 Ω
Rat Blood Response ([2]; concentration 20 μM): 2.0 Ω
Human Blood Response ([3]; concentration 20 μM): 6.3 Ω

CCCCCCCCCCCCCCCCCCOC[C@@H](COP(=O)([O-])OCC[N+](C)(C)C)OC [D-EL, 3-O-octadecyl-2-O-methyl-sn-glycero-1-phosphocholine]
GI50 [5, 11]: 7.96 ± 0.57 µM
GI50 (Lewis Lung; Lewis lung carcinoma): 25.4 ± 0.95 µM
GI50 ([6]; Homo sapiens, MCF7a): 14.6 ± 5.92 µM
GI50 ([7]; Homo sapiens, NCI/ADR-RES): 25.1 ± 1.69 µM
GI50 [8, 12]: 3.6 ± 1.59 µM
activity against L1210/vmdr compared to L-EL and the racemate ([9]; 72 hrs): slight but statistically significant greater activity
GI50 ([9]; Mus musculus): 4.87 ± 0.77 µM
GI50 [10, 13]: 1.41 ± 0.29 µM

CCCCCCCCCCCCCCCCCCOC[C@H](COP(=O)([O-])OCC[N+](C)(C)C)OC [L-EL, 1-O-octadecyl-2-O-methyl-sn-glycero-3-phosphocholine]
GI50 [5, 11]: 9.07 ± 0.39 µM
GI50 (Lewis Lung; Lewis lung carcinoma): 29.1 ± 2.05 µM
GI50 ([6]; Homo sapiens, MCF7a): 18.6 ± 4.57 µM
GI50 ([7]; Homo sapiens, NCI/ADR-RES): 27.9 ± 2.1 µM
GI50 [8, 12]: 4.77 ± 0.41 µM
GI50 ([9]; Mus musculus): 8.77 ± 1.47 µM
GI50 [10, 13]: 1.53 ± 0.42 µM

collagen
Dog Blood Response ([1]; concentration 20 μg/μL): 12 Ω
Rat Blood Response ([2]; concentration 20 μg/μL): 34.1 Ω
Human Blood Response ([3]; concentration 20): 36 Ω
